{"source": "paper PMC8401933", "about": "(Molecules, 2021)", "assay_in_all_cases": "KINOMEscan binding", "key": {"[1]": {"target": "T1, ULK2 (Homo sapiens, UniProt Q8IYT8)", "T1 construct": "purchased Eurofins DiscoverX KINOMEscan", "conditions": "read-out: Percent Control"}, "[2]": {"target": "T2, IRAK4 (Homo sapiens, UniProt Q9NWZ3)", "T2 construct": "purchased Eurofins DiscoverX KINOMEscan", "conditions": "read-out: Percent Control"}, "[3]": {"target": "T3, PRKG1 (Homo sapiens, UniProt Q13976)", "T3 construct": "purchased Eurofins DiscoverX KINOMEscan", "conditions": "read-out: Percent Control"}, "[4]": {"target": "T4, LYN (Homo sapiens, UniProt P07948)", "T4 construct": "purchased Eurofins DiscoverX KINOMEscan", "conditions": "read-out: Percent Control"}, "[5]": {"target": "T5, TGFBR1 (Homo sapiens, UniProt P36897)", "T5 construct": "purchased Eurofins DiscoverX KINOMEscan", "T5 sequence (P36897 34-503)": "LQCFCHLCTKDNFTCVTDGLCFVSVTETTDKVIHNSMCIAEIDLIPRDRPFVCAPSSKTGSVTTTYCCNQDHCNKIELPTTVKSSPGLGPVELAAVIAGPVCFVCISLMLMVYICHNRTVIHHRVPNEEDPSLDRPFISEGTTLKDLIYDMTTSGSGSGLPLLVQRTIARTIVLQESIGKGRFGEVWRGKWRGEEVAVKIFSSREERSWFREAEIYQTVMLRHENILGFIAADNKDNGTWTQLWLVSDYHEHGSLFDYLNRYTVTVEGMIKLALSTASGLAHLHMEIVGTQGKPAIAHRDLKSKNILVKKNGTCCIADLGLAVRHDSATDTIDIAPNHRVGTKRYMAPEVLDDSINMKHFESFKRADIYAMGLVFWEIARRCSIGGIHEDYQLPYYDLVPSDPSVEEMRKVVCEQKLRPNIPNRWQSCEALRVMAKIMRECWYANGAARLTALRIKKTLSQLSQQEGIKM", "conditions": "read-out: Percent Control"}, "[6]": {"target": "T6, PRKD1 (Homo sapiens, UniProt Q15139)", "T6 construct": "purchased Eurofins DiscoverX KINOMEscan", "conditions": "read-out: Percent Control"}, "[7]": {"target": "T7, SGK (Homo sapiens, UniProt O00141)", "T7 construct": "purchased Eurofins DiscoverX KINOMEscan", "conditions": "read-out: Percent Control"}, "[8]": {"target": "T8, YANK2 (Homo sapiens, UniProt Q9NY57)", "T8 construct": "purchased Eurofins DiscoverX KINOMEscan", "conditions": "read-out: Percent Control"}, "[9]": {"target": "T9, MRCKB (Homo sapiens, UniProt Q9Y5S2)", "T9 construct": "purchased Eurofins DiscoverX KINOMEscan", "conditions": "read-out: Percent Control"}, "[10]": {"target": "T10, PDGFRA (Homo sapiens, UniProt P16234)", "T10 construct": "purchased Eurofins DiscoverX KINOMEscan", "conditions": "read-out: Percent Control"}, "[11]": {"target": "T11, MLCK (Homo sapiens, UniProt Q32MK0)", "T11 construct": "purchased Eurofins DiscoverX KINOMEscan", "conditions": "read-out: Percent Control"}, "[12]": {"target": "T12, PIP5K1C (Homo sapiens, UniProt O60331)", "T12 construct": "purchased Eurofins DiscoverX KINOMEscan", "conditions": "read-out: Percent Control"}, "[13]": {"target": "T13, CIT (Homo sapiens, UniProt O14578)", "T13 construct": "purchased Eurofins DiscoverX KINOMEscan", "conditions": "read-out: Percent Control"}, "[14]": {"target": "T14, PLK2 (Homo sapiens, UniProt Q9NYY3)", "T14 construct": "purchased Eurofins DiscoverX KINOMEscan", "conditions": "read-out: Percent Control"}, "[15]": {"target": "T15, ULK1 (Homo sapiens, UniProt O75385)", "T15 construct": "purchased Eurofins DiscoverX KINOMEscan", "conditions": "read-out: Percent Control"}, "[16]": {"target": "T16, IKK-alpha (Homo sapiens, UniProt O15111)", "T16 construct": "purchased Eurofins DiscoverX KINOMEscan", "conditions": "read-out: Percent Control"}, "[17]": {"target": "T17, FES (Homo sapiens, UniProt P07332)", "T17 construct": "purchased Eurofins DiscoverX KINOMEscan", "conditions": "read-out: Percent Control"}, "[18]": {"system": "FLT3(ITD,F691L)", "design": "species or system human", "conditions": "10 μM"}, "[19]": {"target": "T18, BRSK2 (Homo sapiens, UniProt Q8IWQ3)", "T18 construct": "purchased Eurofins DiscoverX KINOMEscan", "conditions": "read-out: Percent Control"}, "[20]": {"target": "T19, HPK1 (Homo sapiens, UniProt Q92918)", "T19 construct": "purchased Eurofins DiscoverX KINOMEscan", "conditions": "read-out: Percent Control"}, "[21]": {"target": "T20, PIK3CA(M1043I) (Homo sapiens, UniProt P42336, M1043I)", "T20 construct": "purchased Eurofins DiscoverX KINOMEscan", "conditions": "read-out: Percent Control"}, "[22]": {"target": "T21, ACVR1 (Homo sapiens, UniProt Q04771)", "T21 construct": "purchased Eurofins DiscoverX KINOMEscan", "T21 sequence (Q04771 21-509)": "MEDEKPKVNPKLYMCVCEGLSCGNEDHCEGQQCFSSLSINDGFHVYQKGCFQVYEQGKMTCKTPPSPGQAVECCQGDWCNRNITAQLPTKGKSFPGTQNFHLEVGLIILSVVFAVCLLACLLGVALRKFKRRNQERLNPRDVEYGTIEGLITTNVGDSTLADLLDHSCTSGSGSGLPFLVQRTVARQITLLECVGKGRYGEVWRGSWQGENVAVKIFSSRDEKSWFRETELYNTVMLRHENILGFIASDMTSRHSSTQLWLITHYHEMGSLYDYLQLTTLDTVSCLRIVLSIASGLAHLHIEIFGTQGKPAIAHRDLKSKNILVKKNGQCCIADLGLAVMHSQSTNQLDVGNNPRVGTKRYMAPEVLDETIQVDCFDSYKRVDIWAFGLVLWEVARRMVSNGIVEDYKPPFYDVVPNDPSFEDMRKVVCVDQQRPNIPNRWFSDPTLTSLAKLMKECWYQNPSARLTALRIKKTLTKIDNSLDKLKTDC", "conditions": "read-out: Percent Control"}, "[23]": {"target": "T22, GSK3B (Homo sapiens, UniProt P49841)", "T22 construct": "purchased Eurofins DiscoverX KINOMEscan", "conditions": "read-out: Percent Control"}, "[24]": {"target": "T23, ABL2 (Homo sapiens, UniProt P42684)", "T23 construct": "purchased Eurofins DiscoverX KINOMEscan", "conditions": "read-out: Percent Control"}, "[25]": {"target": "T24, KIT(A829P) (Homo sapiens, UniProt P10721, A829P)", "T24 construct": "purchased Eurofins DiscoverX KINOMEscan", "T24 sequence (P10721 26-976 A829P)": "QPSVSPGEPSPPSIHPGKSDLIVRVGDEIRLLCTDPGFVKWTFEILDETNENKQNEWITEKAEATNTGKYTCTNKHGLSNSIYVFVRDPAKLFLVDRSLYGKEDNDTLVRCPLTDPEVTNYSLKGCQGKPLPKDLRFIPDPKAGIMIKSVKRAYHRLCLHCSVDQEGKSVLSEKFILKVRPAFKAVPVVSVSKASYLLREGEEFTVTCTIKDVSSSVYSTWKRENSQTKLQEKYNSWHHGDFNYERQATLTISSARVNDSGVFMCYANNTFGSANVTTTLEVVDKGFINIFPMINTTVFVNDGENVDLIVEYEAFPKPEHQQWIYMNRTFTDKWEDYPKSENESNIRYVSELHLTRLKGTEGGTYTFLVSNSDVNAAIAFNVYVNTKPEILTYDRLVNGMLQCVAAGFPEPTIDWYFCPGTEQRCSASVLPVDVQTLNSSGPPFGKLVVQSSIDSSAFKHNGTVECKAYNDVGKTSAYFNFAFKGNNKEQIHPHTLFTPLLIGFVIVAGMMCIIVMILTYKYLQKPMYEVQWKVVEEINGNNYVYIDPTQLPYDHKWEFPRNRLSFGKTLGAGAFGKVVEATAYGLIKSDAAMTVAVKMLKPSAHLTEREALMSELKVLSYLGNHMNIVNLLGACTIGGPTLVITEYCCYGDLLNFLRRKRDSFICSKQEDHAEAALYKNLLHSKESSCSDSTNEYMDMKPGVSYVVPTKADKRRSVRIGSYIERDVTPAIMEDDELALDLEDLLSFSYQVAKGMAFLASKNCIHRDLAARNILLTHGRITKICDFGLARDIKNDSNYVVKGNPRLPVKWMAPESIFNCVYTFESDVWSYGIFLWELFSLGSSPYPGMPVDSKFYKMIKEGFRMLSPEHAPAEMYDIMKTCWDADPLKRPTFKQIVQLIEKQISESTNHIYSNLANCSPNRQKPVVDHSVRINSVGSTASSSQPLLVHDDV", "conditions": "read-out: Percent Control"}, "[26]": {"target": "T25, YSK1 (Homo sapiens, UniProt O00506)", "T25 construct": "purchased Eurofins DiscoverX KINOMEscan", "conditions": "read-out: Percent Control"}, "[27]": {"target": "T26, PAK3 (Homo sapiens, UniProt O75914)", "T26 construct": "purchased Eurofins DiscoverX KINOMEscan", "conditions": "read-out: Percent Control"}, "[28]": {"target": "T27, CHEK1 (Homo sapiens, UniProt O14757)", "T27 construct": "purchased Eurofins DiscoverX KINOMEscan", "conditions": "read-out: Percent Control"}, "[29]": {"target": "T28, NEK1 (Homo sapiens, UniProt Q96PY6)", "T28 construct": "purchased Eurofins DiscoverX KINOMEscan", "conditions": "read-out: Percent Control"}, "[30]": {"target": "T29, DDR2 (Homo sapiens, UniProt Q16832)", "T29 construct": "purchased Eurofins DiscoverX KINOMEscan", "T29 sequence (Q16832 22-855)": "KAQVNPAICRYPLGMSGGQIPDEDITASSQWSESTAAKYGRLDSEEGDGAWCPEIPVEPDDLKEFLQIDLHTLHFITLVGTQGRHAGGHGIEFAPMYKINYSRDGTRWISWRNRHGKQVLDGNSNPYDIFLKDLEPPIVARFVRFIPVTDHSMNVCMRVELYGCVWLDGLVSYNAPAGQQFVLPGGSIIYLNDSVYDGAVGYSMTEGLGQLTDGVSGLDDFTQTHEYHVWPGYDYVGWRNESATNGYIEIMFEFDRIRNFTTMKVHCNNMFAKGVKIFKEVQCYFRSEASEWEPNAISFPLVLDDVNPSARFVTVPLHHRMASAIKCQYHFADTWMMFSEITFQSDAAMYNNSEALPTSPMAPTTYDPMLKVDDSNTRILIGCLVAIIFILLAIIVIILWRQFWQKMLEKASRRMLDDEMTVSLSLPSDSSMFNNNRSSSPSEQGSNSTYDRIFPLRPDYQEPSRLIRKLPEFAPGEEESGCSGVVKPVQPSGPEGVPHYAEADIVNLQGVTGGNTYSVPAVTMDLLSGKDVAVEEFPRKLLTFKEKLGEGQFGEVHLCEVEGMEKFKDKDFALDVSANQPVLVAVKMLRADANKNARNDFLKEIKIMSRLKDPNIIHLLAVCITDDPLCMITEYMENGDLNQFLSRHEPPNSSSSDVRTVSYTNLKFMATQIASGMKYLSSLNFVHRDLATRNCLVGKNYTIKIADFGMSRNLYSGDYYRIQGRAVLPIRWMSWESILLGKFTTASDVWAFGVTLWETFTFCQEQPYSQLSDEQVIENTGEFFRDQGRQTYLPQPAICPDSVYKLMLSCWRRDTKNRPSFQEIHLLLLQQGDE", "conditions": "read-out: Percent Control"}, "[31]": {"target": "T30, WNK1 (Homo sapiens, UniProt Q9H4A3)", "T30 construct": "purchased Eurofins DiscoverX KINOMEscan", "conditions": "read-out: Percent Control"}, "[32]": {"target": "T31, ANKK1 (Homo sapiens, UniProt Q8NFD2)", "T31 construct": "purchased Eurofins DiscoverX KINOMEscan", "conditions": "read-out: Percent Control"}, "[33]": {"target": "T32, TSSK1B (Homo sapiens, UniProt Q9BXA7)", "T32 construct": "purchased Eurofins DiscoverX KINOMEscan", "conditions": "read-out: Percent Control"}, "[34]": {"target": "T33, EPHA3 (Homo sapiens, UniProt P29320)", "T33 construct": "purchased Eurofins DiscoverX KINOMEscan", "T33 sequence (P29320 21-983)": "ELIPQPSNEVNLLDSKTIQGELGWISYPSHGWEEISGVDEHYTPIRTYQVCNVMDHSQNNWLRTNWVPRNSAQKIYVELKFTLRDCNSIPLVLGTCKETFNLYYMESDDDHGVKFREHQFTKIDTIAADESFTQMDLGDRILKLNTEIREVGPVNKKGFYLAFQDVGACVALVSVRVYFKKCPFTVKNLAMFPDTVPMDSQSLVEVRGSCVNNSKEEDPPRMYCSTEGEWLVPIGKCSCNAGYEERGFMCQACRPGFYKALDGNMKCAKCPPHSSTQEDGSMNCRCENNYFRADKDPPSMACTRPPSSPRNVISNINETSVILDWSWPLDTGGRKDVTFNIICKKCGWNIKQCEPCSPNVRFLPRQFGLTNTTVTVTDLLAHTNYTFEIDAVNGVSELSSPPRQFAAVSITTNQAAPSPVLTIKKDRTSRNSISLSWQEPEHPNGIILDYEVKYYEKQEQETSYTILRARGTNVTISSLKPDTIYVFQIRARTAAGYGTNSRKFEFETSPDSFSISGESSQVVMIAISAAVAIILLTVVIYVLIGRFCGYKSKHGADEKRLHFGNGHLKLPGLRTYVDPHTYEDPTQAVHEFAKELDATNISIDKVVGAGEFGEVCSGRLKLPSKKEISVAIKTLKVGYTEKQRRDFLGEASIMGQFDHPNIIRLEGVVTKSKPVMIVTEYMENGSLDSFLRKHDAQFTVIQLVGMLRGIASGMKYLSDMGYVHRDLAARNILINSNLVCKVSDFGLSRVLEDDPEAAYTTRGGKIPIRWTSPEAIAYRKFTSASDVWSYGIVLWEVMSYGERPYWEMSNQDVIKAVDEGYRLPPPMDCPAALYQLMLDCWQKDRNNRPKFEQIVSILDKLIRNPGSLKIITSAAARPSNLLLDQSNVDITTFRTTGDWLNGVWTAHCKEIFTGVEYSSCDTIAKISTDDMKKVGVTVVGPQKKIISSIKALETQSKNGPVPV", "conditions": "read-out: Percent Control"}, "[35]": {"target": "T34, DDR1 (Homo sapiens, UniProt Q08345)", "T34 construct": "purchased Eurofins DiscoverX KINOMEscan", "T34 sequence (Q08345 19-913)": "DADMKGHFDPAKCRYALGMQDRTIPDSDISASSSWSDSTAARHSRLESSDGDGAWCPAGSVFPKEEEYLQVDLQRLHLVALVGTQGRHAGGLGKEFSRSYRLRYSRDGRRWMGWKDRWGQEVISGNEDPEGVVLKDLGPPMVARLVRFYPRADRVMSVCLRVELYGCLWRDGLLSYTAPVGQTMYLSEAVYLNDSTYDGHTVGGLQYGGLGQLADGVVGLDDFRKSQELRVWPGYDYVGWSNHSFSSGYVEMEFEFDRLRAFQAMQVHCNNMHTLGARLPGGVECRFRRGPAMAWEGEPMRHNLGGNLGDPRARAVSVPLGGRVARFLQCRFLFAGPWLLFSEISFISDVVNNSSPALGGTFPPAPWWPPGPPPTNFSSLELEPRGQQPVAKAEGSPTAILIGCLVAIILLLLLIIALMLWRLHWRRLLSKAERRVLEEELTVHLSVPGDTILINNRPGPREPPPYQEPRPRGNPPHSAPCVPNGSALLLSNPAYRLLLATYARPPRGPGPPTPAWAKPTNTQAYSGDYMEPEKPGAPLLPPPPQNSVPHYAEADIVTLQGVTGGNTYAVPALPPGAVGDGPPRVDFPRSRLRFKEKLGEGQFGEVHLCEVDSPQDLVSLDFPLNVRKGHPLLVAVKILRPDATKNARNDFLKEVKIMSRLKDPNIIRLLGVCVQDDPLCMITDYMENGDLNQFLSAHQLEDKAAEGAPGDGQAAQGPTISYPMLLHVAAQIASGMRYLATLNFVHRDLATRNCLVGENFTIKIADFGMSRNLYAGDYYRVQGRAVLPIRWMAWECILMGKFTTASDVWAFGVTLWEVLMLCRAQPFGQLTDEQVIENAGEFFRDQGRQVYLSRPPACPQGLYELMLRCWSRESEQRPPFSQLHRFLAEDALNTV", "conditions": "read-out: Percent Control"}, "[36]": {"target": "T35, ARK5 (Homo sapiens, UniProt O60285)", "T35 construct": "purchased Eurofins DiscoverX KINOMEscan", "conditions": "read-out: Percent Control"}, "[37]": {"target": "T36, MST3 (Homo sapiens, UniProt Q9Y6E0)", "T36 construct": "purchased Eurofins DiscoverX KINOMEscan", "conditions": "read-out: Percent Control"}, "[38]": {"target": "T37, YSK4 (Homo sapiens, UniProt Q56UN5)", "T37 construct": "purchased Eurofins DiscoverX KINOMEscan", "conditions": "read-out: Percent Control"}, "[39]": {"target": "T38, PAK2 (Homo sapiens, UniProt Q13177)", "T38 construct": "purchased Eurofins DiscoverX KINOMEscan", "conditions": "read-out: Percent Control"}, "[40]": {"target": "T39, PAK6 (Homo sapiens, UniProt Q9NQU5)", "T39 construct": "purchased Eurofins DiscoverX KINOMEscan", "conditions": "read-out: Percent Control"}, "[41]": {"target": "T40, CSNK2A2 (Homo sapiens, UniProt P19784)", "T40 construct": "purchased Eurofins DiscoverX KINOMEscan", "conditions": "read-out: Percent Control"}, "[42]": {"target": "T41, IKK-beta (Homo sapiens, UniProt O14920)", "T41 construct": "purchased Eurofins DiscoverX KINOMEscan", "conditions": "read-out: Percent Control"}, "[43]": {"target": "T42, DRAK2 (Homo sapiens, UniProt O94768)", "T42 construct": "purchased Eurofins DiscoverX KINOMEscan", "conditions": "read-out: Percent Control"}, "[44]": {"target": "T43, FLT3(K663Q) (Homo sapiens, UniProt P36888, K663Q)", "T43 construct": "purchased Eurofins DiscoverX KINOMEscan", "conditions": "read-out: Percent Control"}, "[45]": {"target": "T44, CDK5 (Homo sapiens, UniProt Q00535)", "T44 construct": "purchased Eurofins DiscoverX KINOMEscan", "T44 sequence (Q00535 whole entry)": "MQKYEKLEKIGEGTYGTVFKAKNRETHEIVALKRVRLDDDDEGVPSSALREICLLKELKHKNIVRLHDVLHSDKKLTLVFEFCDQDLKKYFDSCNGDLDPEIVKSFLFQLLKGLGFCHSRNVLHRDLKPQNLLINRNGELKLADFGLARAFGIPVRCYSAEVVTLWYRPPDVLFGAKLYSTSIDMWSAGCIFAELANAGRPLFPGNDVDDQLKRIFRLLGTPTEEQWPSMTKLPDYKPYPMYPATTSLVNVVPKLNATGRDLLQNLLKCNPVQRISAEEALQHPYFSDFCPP", "conditions": "read-out: Percent Control"}}}
{"smiles": "CC(C)NC(=O)COc1cccc(-c2nc(Nc3ccc4[nH]ncc4c3)c3ccccc3n2)c1", "note": "[KD025, 2-(3-(4-((1H-indazol-5-yl)amino)quinazolin-2-yl)phenoxy)-N-isopropylacetamide]", "values": [{"measurement": "remaining binding at 10 µM", "setting": "[1]", "result": 87, "unit": "%"}, {"measurement": "remaining binding at 10 µM", "setting": "[2]", "result": 100, "unit": "%"}, {"measurement": "remaining binding at 10 µM", "setting": "[3]", "result": 100, "unit": "%"}, {"measurement": "remaining binding at 10 µM", "setting": "[4]", "result": 100, "unit": "%"}, {"measurement": "remaining binding at 10 µM", "setting": "[5]", "result": 59, "unit": "%"}, {"measurement": "remaining binding at 10 µM", "setting": "[6]", "result": 72, "unit": "%"}, {"measurement": "remaining binding at 10 µM", "setting": "[7]", "result": 95, "unit": "%"}, {"measurement": "remaining binding at 10 µM", "setting": "[8]", "result": 88, "unit": "%"}, {"measurement": "remaining binding at 10 µM", "setting": "[9]", "result": 1, "unit": "%"}, {"measurement": "remaining binding at 10 µM", "setting": "[10]", "result": 80, "unit": "%"}, {"measurement": "remaining binding at 10 µM", "setting": "[11]", "result": 100, "unit": "%"}, {"measurement": "remaining binding at 10 µM", "setting": "[12]", "result": 47, "unit": "%"}, {"measurement": "remaining binding at 10 µM", "setting": "[13]", "result": 75, "unit": "%"}, {"measurement": "remaining binding at 10 µM", "setting": "[14]", "result": 94, "unit": "%"}, {"measurement": "remaining binding at 10 µM", "setting": "[15]", "result": 100, "unit": "%"}, {"measurement": "remaining binding at 10 µM", "setting": "[16]", "result": 100, "unit": "%"}, {"measurement": "remaining binding at 10 µM", "setting": "[17]", "result": 94, "unit": "%"}, {"measurement": "Percent Control", "setting": "[18]", "result": 52, "unit": "%"}, {"measurement": "remaining binding at 10 µM", "setting": "[19]", "result": 95, "unit": "%"}, {"measurement": "remaining binding at 10 µM", "setting": "[20]", "result": 76, "unit": "%"}, {"measurement": "remaining binding at 10 µM", "setting": "[21]", "result": 48, "unit": "%"}, {"measurement": "remaining binding at 10 µM", "setting": "[22]", "result": 32, "unit": "%"}, {"measurement": "remaining binding at 10 µM", "setting": "[23]", "result": 100, "unit": "%"}, {"measurement": "remaining binding at 10 µM", "setting": "[24]", "result": 92, "unit": "%"}, {"measurement": "remaining binding at 10 µM", "setting": "[25]", "result": 53, "unit": "%"}, {"measurement": "remaining binding at 10 µM", "setting": "[26]", "result": 70, "unit": "%"}, {"measurement": "remaining binding at 10 µM", "setting": "[27]", "result": 77, "unit": "%"}, {"measurement": "remaining binding at 10 µM", "setting": "[28]", "result": 100, "unit": "%"}, {"measurement": "remaining binding at 10 µM", "setting": "[29]", "result": 99, "unit": "%"}, {"measurement": "remaining binding at 10 µM", "setting": "[30]", "result": 45, "unit": "%"}, {"measurement": "remaining binding at 10 µM", "setting": "[31]", "result": 94, "unit": "%"}, {"measurement": "remaining binding at 10 µM", "setting": "[32]", "result": 72, "unit": "%"}, {"measurement": "remaining binding at 10 µM", "setting": "[33]", "result": 76, "unit": "%"}, {"measurement": "remaining binding at 10 µM", "setting": "[34]", "result": 75, "unit": "%"}, {"measurement": "remaining binding at 10 µM", "setting": "[35]", "result": 6.4, "unit": "%"}, {"measurement": "remaining binding at 10 µM", "setting": "[36]", "result": 100, "unit": "%"}, {"measurement": "remaining binding at 10 µM", "setting": "[37]", "result": 72, "unit": "%"}, {"measurement": "remaining binding at 10 µM", "setting": "[38]", "result": 66, "unit": "%"}, {"measurement": "remaining binding at 10 µM", "setting": "[39]", "result": 79, "unit": "%"}, {"measurement": "remaining binding at 10 µM", "setting": "[40]", "result": 100, "unit": "%"}, {"measurement": "remaining binding at 10 µM", "setting": "[41]", "result": 0.5, "unit": "%"}, {"measurement": "remaining binding at 10 µM", "setting": "[42]", "result": 100, "unit": "%"}, {"measurement": "remaining binding at 10 µM", "setting": "[43]", "result": 85, "unit": "%"}, {"measurement": "remaining binding at 10 µM", "setting": "[44]", "result": 55, "unit": "%"}, {"measurement": "remaining binding at 10 µM", "setting": "[45]", "result": 83, "unit": "%"}]}
